# Data as given in patent publication US9120746B2, “Crystalline form of a 3-phenoxymethylpyrrolidine compound” (Theravance Biopharma R&D IP, LLC, priority 2010, dated 2015).
# Structures can show the parent of a compound that is named as a salt. Where two headings read alike, the source gives them in different places.
# Assays:
# [1] = target: T1, hNET (Homo sapiens, UniProt P23975); experiment: hNET neurotransmitter uptake assay (3H-NE); assay type: cell-based; conditions: 3H-NE 50 nM, HEK-293 hNET cells; read-out: norepinephrine reuptake inhibition pIC50 (converted)
# T1 construct: expressed in transfected cells; host or cells: HEK-293 derived cell line, stably transfected
# T1 sequence (P23975 whole entry): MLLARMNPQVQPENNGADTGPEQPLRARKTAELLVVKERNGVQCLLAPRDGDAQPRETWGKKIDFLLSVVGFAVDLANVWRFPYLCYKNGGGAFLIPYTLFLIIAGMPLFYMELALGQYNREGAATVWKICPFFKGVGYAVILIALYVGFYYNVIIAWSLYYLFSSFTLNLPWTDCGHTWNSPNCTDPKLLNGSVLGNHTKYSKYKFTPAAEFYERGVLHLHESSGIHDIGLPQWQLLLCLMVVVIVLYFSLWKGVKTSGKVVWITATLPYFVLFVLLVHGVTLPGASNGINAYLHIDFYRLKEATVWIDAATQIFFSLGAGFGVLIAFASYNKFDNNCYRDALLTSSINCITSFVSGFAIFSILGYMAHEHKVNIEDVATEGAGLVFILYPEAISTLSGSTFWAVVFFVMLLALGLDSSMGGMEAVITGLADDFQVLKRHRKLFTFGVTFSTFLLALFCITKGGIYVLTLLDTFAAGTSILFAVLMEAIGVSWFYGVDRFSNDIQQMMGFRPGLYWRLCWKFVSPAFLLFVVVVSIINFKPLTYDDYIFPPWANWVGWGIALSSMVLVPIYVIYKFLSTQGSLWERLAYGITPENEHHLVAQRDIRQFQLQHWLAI
# Experimental: (§1) Neurotransmitter uptake assays were used to measure inhibition of ^3H-serotonin (^3H-5-HT), ^3H-norepinephrine (^3H-NE), and ^3H-dopamine (^3H-DA) uptake into cells expressing the respective transporter (hSERT, hNET or hDAT) in order to determine the pIC50 values of test compounds at the transporters.
# (§2) HEK-293 derived cell lines stably-transfected with hSERT, hNET, or hDAT, respectively, were grown in DMEM medium supplemented with 10% dialyzed FBS (for hSERT) or FBS (for hNET and hDAT), 100 μg/ml penicillin, 100 μg/ml streptomycin, 2 mM L-glutamine and 250 μg/ml of the aminoglycoside antibiotic G418 (for hSERT and hNET) or 800 ug/ml (for hDAT), in a 5% CO2 humidified incubator at 37° C. When cultures reached 80% confluence, the cells were washed thoroughly in PBS (without Ca^2+ and Mg^2+) and lifted with 5 mM EDTA in PBS. […]
# (§3) Neurotransmitter uptake assays were performed in a 96-well assay plate in a total volume of 400 μl assay buffer (Krebs-Ringer bicarbonate buffer containing HEPES (10 mM), CaCl2 (2.2 mM), ascorbic acid (200 μM) and pargyline (200 μM), pH 7.4) with 1.5×10^4 and 2.5×10^4 cells, for SERT, NET, and DAT, respectively. […] Non-specific neurotransmitter uptake was determined in the presence of 2.5 μM duloxetine, 2.5 μM desipramine, or 10 uM GBR-12909 (each in Dilution Buffer) for the hSERT, hNET, or hDAT assays, respectively. […]
# [2] = target: T1, hNET; experiment: hNET membrane radioligand binding assay (3H-nisoxetine); conditions: 1.0 nM 3H-nisoxetine, HEK-293 hNET membranes; read-out: NET pKi (converted)
# Experimental: (§4) Membrane radioligand binding assays were used to measure inhibition of labeled ligand (^3H-citalopram or ^3H-nisoxetine or ^3H-WIN35428) binding to membranes prepared from cells expressing the respective human recombinant transporter (hSERT or hNET or hDAT) in order to determine the pKi values of test compounds at the transporters.
# (§5) Recombinant human embryonic kidney (HEK-293) derived cell lines stably transfected with hSERT or hNET, respectively, were grown in Dulbecco's Modified Eagle's Medium (DMEM) medium supplemented with 10% dialyzed FBS (for hSERT) or FBS (for hNET), 100 μg/ml penicillin, 100 μg/ml streptomycin, 2 mM L-glutamine and 250 μg/ml of the aminoglycoside antibiotic G418, in a 5% CO2 humidified incubator at 37° C. When cultures reached 80% confluence, the cells were washed thoroughly in PBS (without Ca^2+ and Mg^2+) and lifted with 5 mM EDTA in PBS. […] Protein concentration of the membrane suspension was determined using a Bio-Rad Bradford Protein Assay kit. […]
# (§6) Stock solutions (10 mM in DMSO) of test compound were prepared and serial dilutions made using Dilution Buffer (50 mM Tris-HCl, 120 mM NaCl, 5 mM KCl, pH 7.4, 0.1% BSA, 400 μM ascorbic acid). Non-specific radioligand binding was determined in the presence of 1 μM duloxetine, 1 μM desipramine or 10 μM GBR12909 (each in Dilution Buffer) for the hSERT, hNET or hDAT assays, respectively. […]
# [3] = target: T2, hSERT (Homo sapiens, UniProt P31645); experiment: hSERT neurotransmitter uptake assay (3H-5-HT); assay type: cell-based; conditions: 3H-5-HT 20 nM, HEK-293 hSERT cells; read-out: serotonin reuptake inhibition pIC50 (converted)
# T2 construct: expressed in transfected cells; host or cells: HEK-293 derived cell line, stably transfected
# T2 sequence (P31645 whole entry): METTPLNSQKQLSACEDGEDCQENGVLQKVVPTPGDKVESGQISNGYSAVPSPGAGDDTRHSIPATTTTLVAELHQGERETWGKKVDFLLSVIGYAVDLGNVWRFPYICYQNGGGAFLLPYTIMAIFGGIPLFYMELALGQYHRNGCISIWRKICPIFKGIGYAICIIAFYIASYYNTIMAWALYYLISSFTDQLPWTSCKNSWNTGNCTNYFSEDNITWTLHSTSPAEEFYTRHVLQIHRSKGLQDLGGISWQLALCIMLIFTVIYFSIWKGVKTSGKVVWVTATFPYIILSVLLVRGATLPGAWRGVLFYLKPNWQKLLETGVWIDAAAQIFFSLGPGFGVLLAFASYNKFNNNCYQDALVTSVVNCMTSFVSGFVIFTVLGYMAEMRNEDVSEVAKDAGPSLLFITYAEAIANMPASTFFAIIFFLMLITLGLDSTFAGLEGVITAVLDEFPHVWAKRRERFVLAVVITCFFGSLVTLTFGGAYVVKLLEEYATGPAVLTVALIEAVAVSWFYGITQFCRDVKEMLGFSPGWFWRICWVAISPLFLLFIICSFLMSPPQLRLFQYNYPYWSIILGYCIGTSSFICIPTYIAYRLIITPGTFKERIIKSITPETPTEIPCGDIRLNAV
# Experimental: as §1, §2, §3
# [4] = target: T2, hSERT; experiment: hSERT membrane radioligand binding assay (3H-citalopram); conditions: 1.0 nM 3H-citalopram, HEK-293 hSERT membranes; read-out: SERT pKi (converted)
# Experimental: as §4, §5, §6
# [5] = Thermal analysis (DSC, TGA); assay type: physicochemical
# Experimental: Differential scanning calorimetry (DSC) was performed using a TA Instruments
# Model Q-100 module with a Thermal Analyst controller. Data were collected and analyzed using TA Instruments Thermal Solutions software. A 1.22 mg sample of the crystalline hydrochloride salt of the invention was accurately weighed into a covered aluminum pan. After a 5 minute isothermal equilibration period at 22° C., the sample was heated using a linear heating ramp of 10° C./min from 22° C. to 250° C.
# [6] = Dynamic moisture sorption (DMS) assessment; assay type: physicochemical; conditions: exposed to up to 85% relative humidity, 25° C.
# Experimental: A dynamic moisture sorption (DMS) assessment (also known as a moisture sorption-desorption profile) was performed for the crystalline hydrochloride salt of the invention using a VTI atmospheric microbalance, SGA-100 system (VTI Corp., Hialeah, Fla. 33016). A sample size of approximately 2.73 mg was used and the humidity was set at the ambient value at the start of the analysis. The DMS analysis consisted of a scan rate of 5% relative humidity/step over the full humidity range of 2% relative humidity to 90% relative humidity. The DMS run was performed isothermally at 25° C.
# [7] = Solution stability (HPLC peak area); assay type: physicochemical; conditions: for Change in HPLC Peak Area: 10 μm/mL, 3 days at 40° C.
# [8] = Deliquescence on exposure to atmospheric moisture; assay type: physicochemical; conditions: exposed to atmospheric moisture
# [9] = Aqueous solubility; assay type: physicochemical; conditions: read-out: SOLUBILITY CONCENTRATION
# Excerpt: The crystalline hydrochloride salt of the invention has very good aqueous solubility in a wide pH range: […]
IC50 [1],Ki [2],IC50 [3],Ki [4],weight gain [6],Change in HPLC Peak Area ([7]; 50 mM citric acid pH 2.2),Change in HPLC Peak Area ([7]; 50 mM phosphate-buffered pH 7.4),"stability at room temperature ([7]; room temperature, 30 days, concentrations of 1 mg/mL and 10 mg/mL)",deliquescence [8],"solubility ([9]; aqueous HCl, simulated gastric fluid, HCl pH 2.0)","solubility ([9]; phosphate buffer, aqueous buffer, 50 mM phosphate-buffered pH 7.4)",solubility ([9]; un-buffered water),Structure (SMILES),thermal stability (DSC) ([5]; heating 10° C./min from 22° C. to 250° C.),weight loss (TGA) ([5]; room temperature to 200° C.)
≤ 10 nM,≤ 10 nM,≤ 10 nM,≤ 10 nM,,,,,,,,,"CC(C)[C@H](Oc1ccc(Cl)cc1)[C@H]1CCNC1 [Example 1 (TFA salt), (S)-3-[(S)-1-(4-Chlorophenoxy)-2-methylpropyl]pyrrolidine]",,
,,,,less than 1.0%,100.5%,100.0%,no degradation,not to be deliquescent,> 10000 µg/mL,> 10000 µg/mL,> 10000 µg/mL,"CC(C)[C@H](Oc1ccc(Cl)cc1)[C@H]1CCNC1 [Example 1, Crystalline Hydrochloride Salt of (S)-3-[(S)-1-(4-Chlorophenoxy)-2-methylpropyl]pyrrolidine]",no significant thermal decomposition below about 200 °C,did not lose any significant amount of weight
